Where “and” joins values, the source holds several entries; their conditions need not be identical. Identical values can stand only once. Toxic doses and inconclusive results are not listed. No stated cut-off is given here; in the data, active means T/C of 150% or more; inactive means T/C below 125%.
System: L1210 leukemia ip in BDF1 mice, survival T/C
Experiment: NCI In Vivo Anticancer Drug Screen. Data for tumor model L1210 Leukemia (intraperitoneal) in B6D2F1 (BDF1) mice
Settings: endpoint: mean survival time, higher = longer survival
How it was run: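 Each compound was tested against a transplantable tumor grown in mice. The endpoint was survival, with treated animals benchmarked against vehicle controls as a simple ratio.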

[1] = dose: 100.0 mg/kg/injection, schedule: Q04DX003 (ip), vehicle: Klucel (hydroxypropylcellulose) (HPC)
[2] = dose: 200.0 mg/kg/injection, schedule: Q04DX003 (ip), vehicle: Klucel (hydroxypropylcellulose) (HPC)
[3] = dose: 400.0 mg/kg/injection, schedule: Q04DX003 (ip), vehicle: Klucel (hydroxypropylcellulose) (HPC)
[4] = dose: 100.0 mg/kg/injection, schedule: Q01DX009 (ip), vehicle: saline sonified
[5] = dose: 100.0 mg/kg/injection, schedule: Q01DX001 (ip), vehicle: carboxymethylcellulose (CMC)
[6] = dose: 200.0 mg/kg/injection, schedule: Q01DX001 (ip), vehicle: carboxymethylcellulose (CMC)
[7] = dose: 400.0 mg/kg/injection, schedule: Q01DX001 (ip), vehicle: carboxymethylcellulose (CMC)
[8] = dose: 100.0 mg/kg/injection, schedule: Q04DX003 (ip), vehicle: saline with Tween-80
[9] = dose: 200.0 mg/kg/injection, schedule: Q04DX003 (ip), vehicle: saline with Tween-80
[10] = dose: 400.0 mg/kg/injection, schedule: Q04DX003 (ip), vehicle: saline with Tween-80
[11] = dose: 100.0 mg/kg/injection, schedule: Q01DX009 (ip), vehicle: saline with Tween-80
[12] = dose: 200.0 mg/kg/injection, schedule: Q01DX009 (ip), vehicle: saline with Tween-80
[13] = dose: 400.0 mg/kg/injection, schedule: Q01DX009 (ip), vehicle: saline with Tween-80
[14] = dose: 100.0 mg/kg/injection, schedule: Q01DX001 (ip), vehicle: saline
[15] = dose: 200.0 mg/kg/injection, schedule: Q01DX001 (ip), vehicle: saline
[16] = dose: 400.0 mg/kg/injection, schedule: Q01DX001 (ip), vehicle: saline

Measured: T/C

CC(=O)OC1CC2C(CCC3(C)C(C(C)=O)CCC23)C2(C)CCC(O)C=C12 (stereo unspecified)
inactive: dose: 75.0 mg/kg/injection, schedule: Q01DX001 (ip), vehicle: other 101 % of control | dose: 150.0 mg/kg/injection, schedule: Q01DX001 (ip), vehicle: other 98 % of control | dose: 300.0 mg/kg/injection, schedule: Q01DX001 (ip), vehicle: other 103 % of control

CCOC(=O)C(C#N)NC(C)=O (stereo unspecified)
inactive: [1] 102 % of control | [2] 102 % of control | [3] 111 % of control

OC(CCl)COCC#Cc1ccccc1 (stereo unspecified)
inactive: [4] 93 % of control | dose: 100.0 mg/kg/injection, schedule: Q04DX003 (ip), vehicle: saline sonified 101 % of control | dose: 200.0 mg/kg/injection, schedule: Q01DX009 (ip), vehicle: saline sonified 96 % of control | dose: 200.0 mg/kg/injection, schedule: Q04DX003 (ip), vehicle: saline sonified 93 % of control | dose: 400.0 mg/kg/injection, schedule: Q01DX009 (ip), vehicle: saline sonified 93 % of control | dose: 400.0 mg/kg/injection, schedule: Q04DX003 (ip), vehicle: saline sonified 92 % of control

CC(C)(C)OOC(=O)c1ccccc1O
inactive: [4] 113 % of control | dose: 100.0 mg/kg/injection, schedule: Q04DX003 (ip), vehicle: saline 106 % of control | dose: 200.0 mg/kg/injection, schedule: Q04DX003 (ip), vehicle: saline 106 % of control | dose: 400.0 mg/kg/injection, schedule: Q04DX003 (ip), vehicle: saline 110 % of control

O=C1c2ccccc2-c2cccc([N+](=O)[O-])c21
inactive: [5] 97 % of control | [6] 92 % of control | [7] 97 % of control

COC(=O)C1=CC(C(=O)OC)C(C(=O)OC)N2C=CSC2(C)C1 (stereo unspecified)
inactive: [8] 96 % of control | [9] 96 % of control | [10] 93 % of control

Cc1c(NC(=O)Nc2cccc(F)c2)c(=O)n(-c2ccccc2)n1C
inactive: [11] 101 % of control | [8] 104 % of control | [12] 98 % of control | [9] 104 % of control | [13] 98 % of control | [10] 101 % of control

COC1OC(COC(=O)c2ccccc2)C(OC(=O)c2ccccc2)C(OC(=O)c2ccccc2)C1OC(=O)c1ccccc1 (stereo unspecified)
inactive: [11] 116 % of control | [12] 107 % of control | [13] 107 % of control

CC(CSc1ccccc1)NCCO (stereo unspecified)
inactive: [8] 97 % of control

CC(=O)NC1C(OCc2ccccc2)OC(COC(c2ccccc2)(c2ccccc2)c2ccccc2)C(OS(=O)(=O)c2ccc(C)cc2)C1OCc1ccccc1 (stereo unspecified)
inactive: dose: 100.0 mg/kg/injection, schedule: Q01DX001 (ip), vehicle: saline with Tween-80 100 % of control | dose: 200.0 mg/kg/injection, schedule: Q01DX001 (ip), vehicle: saline with Tween-80 86 % of control | dose: 400.0 mg/kg/injection, schedule: Q01DX001 (ip), vehicle: saline with Tween-80 100 % of control

CCOC(=O)c1ccc(NC(=O)Oc2cc(C)ccc2C(C)C)cc1
inactive: dose: 100.0 mg/kg/injection, schedule: Q01DX009 (ip), vehicle: Klucel (hydroxypropylcellulose) (HPC) 94 % of control | dose: 200.0 mg/kg/injection, schedule: Q01DX009 (ip), vehicle: Klucel (hydroxypropylcellulose) (HPC) 94 % of control | dose: 400.0 mg/kg/injection, schedule: Q01DX009 (ip), vehicle: Klucel (hydroxypropylcellulose) (HPC) 94 % of control

CN(N=Nc1ccc(C(N)=O)cc1)C1CCCCC1
inactive: dose: 100.0 mg/kg/injection, schedule: Q01DX001 (ip), vehicle: other 91 % of control | dose: 200.0 mg/kg/injection, schedule: Q01DX001 (ip), vehicle: other 107 % of control

O=S(=O)(C(Br)Br)C(Br)c1ccccc1 (stereo unspecified)
inactive: [14] 93 % of control | [15] 101 % of control | [16] 87 % of control

COc1ccccc1-n1c(O)c(N=Nc2ccc(C)cc2)c(=O)n(-c2ccccc2)c1=S
inactive: dose: 100.0 mg/kg/injection, schedule: Q01DX001 (ip), vehicle: Klucel (hydroxypropylcellulose) (HPC) 103 % of control | dose: 200.0 mg/kg/injection, schedule: Q01DX001 (ip), vehicle: Klucel (hydroxypropylcellulose) (HPC) 97 % of control | dose: 400.0 mg/kg/injection, schedule: Q01DX001 (ip), vehicle: Klucel (hydroxypropylcellulose) (HPC) 91 % of control

CCc1ccc(/C=C/c2ccc(O)c3ccccc23)[n+](C)c1
inactive: dose: 75.0 mg/kg/injection, schedule: Q01DX001 (ip), vehicle: saline 97 % of control | dose: 150.0 mg/kg/injection, schedule: Q01DX001 (ip), vehicle: saline 105 % of control

O=C(Nc1ccc(F)cc1)Oc1ccc([N+](=O)[O-])cc1
inactive: dose: 25.0 mg/kg/injection, schedule: Q01DX009 (ip), vehicle: saline 106 % of control | dose: 50.0 mg/kg/injection, schedule: Q01DX009 (ip), vehicle: saline 100 % of control | dose: 100.0 mg/kg/injection, schedule: Q01DX009 (ip), vehicle: saline 97 % of control and 106 % of control | dose: 200.0 mg/kg/injection, schedule: Q01DX009 (ip), vehicle: saline 95 % of control | dose: 400.0 mg/kg/injection, schedule: Q01DX009 (ip), vehicle: saline 97 % of control

CC(C)(C#N)CCCCCC(C)(C)C#N
inactive: dose: 50.0 mg/kg/injection, schedule: Q01DX001 (ip), vehicle: saline 100 % of control | [14] 96 % of control | [15] 100 % of control | [16] 97 % of control

COC(=O)c1ccc(O)c(Cl)c1
inactive: [5] 96 % of control | dose: 100.0 mg/kg/injection, schedule: Q01DX009 (ip), vehicle: carboxymethylcellulose (CMC) 96 % of control | dose: 100.0 mg/kg/injection, schedule: Q04DX002 (ip), vehicle: carboxymethylcellulose (CMC) 103 % of control and 90 % of control | dose: 100.0 mg/kg/injection, schedule: Q04DX003 (ip), vehicle: carboxymethylcellulose (CMC) 97 % of control and 105 % of control | [6] 97 % of control | dose: 200.0 mg/kg/injection, schedule: Q01DX009 (ip), vehicle: carboxymethylcellulose (CMC) 92 % of control | dose: 200.0 mg/kg/injection, schedule: Q04DX002 (ip), vehicle: carboxymethylcellulose (CMC) 105 % of control and 90 % of control | dose: 200.0 mg/kg/injection, schedule: Q04DX003 (ip), vehicle: carboxymethylcellulose (CMC) 100 % of control and 91 % of control | [7] 91 % of control | dose: 400.0 mg/kg/injection, schedule: Q01DX009 (ip), vehicle: carboxymethylcellulose (CMC) 96 % of control | dose: 400.0 mg/kg/injection, schedule: Q04DX002 (ip), vehicle: carboxymethylcellulose (CMC) 97 % of control | dose: 400.0 mg/kg/injection, schedule: Q04DX003 (ip), vehicle: carboxymethylcellulose (CMC) 102 % of control and 103 % of control

O=C(COc1ccc(Cl)cc1C(=O)O)NCc1cccc2ccccc12
inactive: [1] 97 % of control | [2] 98 % of control | [3] 100 % of control

O=C(SCc1ccccc1)c1cccnc1
inactive: [8] 99 % of control

O=C(Nc1ccc2oc(=O)c3ccccc3c2c1)C(Cl)Cl
inactive: dose: 15.0 mg/kg/injection, schedule: Q01DX015 (ip), vehicle: carboxymethylcellulose (CMC) 88 % of control | dose: 30.0 mg/kg/injection, schedule: Q01DX015 (ip), vehicle: carboxymethylcellulose (CMC) 88 % of control | dose: 60.0 mg/kg/injection, schedule: Q01DX015 (ip), vehicle: carboxymethylcellulose (CMC) 94 % of control | [5] 97 % of control | dose: 120.0 mg/kg/injection, schedule: Q01DX015 (ip), vehicle: carboxymethylcellulose (CMC) 93 % of control and 96 % of control | [6] 109 % of control | dose: 240.0 mg/kg/injection, schedule: Q01DX015 (ip), vehicle: carboxymethylcellulose (CMC) 98 % of control | [7] 103 % of control | dose: 480.0 mg/kg/injection, schedule: Q01DX015 (ip), vehicle: carboxymethylcellulose (CMC) 98 % of control

Nc1nc(=S)ss1
inactive: [1] 108 % of control | [2] 105 % of control | [3] 97 % of control

Cc1cc2c(cc1C)-c1ccccc1C2=O
inactive: [5] 102 % of control | [6] 102 % of control | [7] 96 % of control

Cc1oc2ccc(NS(=O)(=O)c3ccccc3)cc2c1C(=O)O
inactive: dose: 25.0 mg/kg/injection, schedule: Q01DX009 (ip), vehicle: saline with Tween-80 101 % of control | dose: 50.0 mg/kg/injection, schedule: Q01DX009 (ip), vehicle: saline with Tween-80 107 % of control | [11] 101 % of control

Reference: PubChem BioAssay AID248 (DTP/NCI, 2004)
